Test results as given in PMC9866728, “Dosing Methods to Enable Cell-Based In Vitro Testing of Complex Substances: A Case Study with a PAH Mixture” (Toxics, 2022).
“And” between values parts separate entries of the source, which are not always exact repeats. Equal entries are not always repeated. Where two headings read alike, the source gives them in different places.

Columns and labels:
[1] = Table S1; ref PubChem; cited from earlier work
[2] = Recovery over time from exposure to cell culture media without cells (GC-MS/MS); type: physicochemical
[3] = Loading kinetics of silicone micro-O-rings from methanol PAH solution (GC-MS/MS); type: physicochemical
[4] = O-ring loading rate constant, larger O-rings; ref Smith et al. 2010 [24]; cited from earlier work
[5] = Smith et al. O-Rings; ref Smith et al. 2010 [24]; cited from earlier work
[6] = MAF (400 ng/mL each PAH), one phase decay fit of nominal recovery
[7] = MAF (400 ng/mL each PAH), one phase decay fit of nominal recovery (text: ng/mL)
[8] = O-Rings (loaded in 10 µg/mL PAH solution), one phase association fit of nominal recovery
[9] = O-Rings, one phase association fit
[10] = O-Rings, one phase association fit (desorption into media)
[11] = Solvent Extract (DMSO, 15 ng/mL each PAH), one phase decay fit of nominal recovery
[12] = Solvent Extract (DMSO, 15 ng/mL each PAH), one phase decay fit of nominal recovery (text: ng/mL)
[13] = Solvent Extract, one phase decay fit
[14] = loading rate constant, one-phase association (h^-1), 10 µg/mL PAH mix in methanol
[15] = one-phase association fit of nominal Csilicone (µg/mL per Eq 1), 10 µg/mL PAH mix in methanol
[16] = one-phase association fit of nominal Csilicone, 10 µg/mL PAH mix in methanol, 0-24 h
[17] = one-phase association fit, micro-O-ring absorption

SMILES	Y0 [2, 6]	Plateau [2, 7]	K ([2]; MAF, one phase decay fit)	Span ([2]; MAF, one phase decay fit)	Tau ([2]; MAF, one phase decay fit)	Plateau [2, 8]	Y0 [2, 8]	Half-time [2, 9]	Span [2, 9]	Tau [2, 9]	K [2, 10]	Y0 [2, 11]	Plateau [2, 12]	Half-time [2]	Half-time Value [3]	K Value [3]	Plateau Value [3]	Span Value [3]	Tau Value [3]	Y0 [3]	also measured
Cc1cccc2ccccc12 [1-Methylnaphthalene]	399.6	37.1	1.206	362.5	0.8293	1.035	-0.0496	1.691	1.085	2.439	0.41	14.94	2.307	–	–	–	–	–	–	–	LogKow (PubChem) [1]: 3.87; K [2, 13]: 0.9085; Span [2, 13]: 12.63; Tau [2, 13]: 1.101; best-fit rate constants (micro-O-ring loading) ([3]; loading from methanol solution): 26.7 h⁻¹; K Value [3, 14]: 26.6865; Plateau Value [3, 15]: 0.8912; Y0 [3, 16]: 0; Half-time Value [3, 17]: 0.02597; Span Value [3, 17]: 0.8912; Tau Value [3, 17]: 0.03747
Cc1ccc2ccccc2c1 [2-Methylnaphthalene]	–	–	–	–	–	–	–	–	–	–	–	–	–	0.5872	0.02597	26.6855	0.8914	0.8914	0.03747	0	K [2]: 1.206 and 1.18 and 0.9072; Tau [2]: 0.8294 and 0.8472 and 1.102; best-fit rate constants (micro-O-ring loading) [3]: 26.7 h⁻¹
c1cc2c3c(cccc3c1)CC2 [Acenaphthene]	398.6	44.72	0.9374	353.9	1.067	0.8203	-0.03588	2.678	0.8562	3.863	0.2589	14.88	2.58	–	–	–	–	–	–	–	Smith et al. 2010 K Value [4]: 1.8; LogKow (PubChem) [1]: 3.92; K [2, 13]: 0.7259; Span [2, 13]: 12.3; Tau [2, 13]: 1.378; K Value [3, 14]: 22.38; Plateau Value [3, 15]: 0.8224; Y0 [3, 16]: 0; Half-time Value [3, 17]: 0.03097; Span Value [3, 17]: 0.8224; Tau Value [3, 17]: 0.04468
C1=Cc2cccc3cccc1c23 [Acenaphthylene]	399.1	41.99	1.016	357.1	0.9842	0.6692	-0.08033	0.6114	0.7495	0.882	1.134	14.88	2.66	–	–	–	–	–	–	–	K [2, 13]: 0.7341; Span [2, 13]: 12.22; Tau [2, 13]: 1.362; K Value [3, 14]: 22.7382; Plateau Value [3, 15]: 0.6656; Y0 [3, 16]: 0; Half-time Value [3, 17]: 0.03048; Span Value [3, 17]: 0.6656; Tau Value [3, 17]: 0.04398
c1ccc2cc3c(ccc4ccccc43)cc2c1 [Benzo[a]anthracene]	–	–	–	–	–	–	–	–	–	–	–	–	–	2.255	4.451	0.1557	0.1684	0.1684	6.421	0	Smith et al. 2010 K Value [4]: 1.38
c1ccc2c(c1)-c1cccc3c1c-2cc1ccccc13 [Benzo[b]fluoranthene]	–	–	–	–	–	–	–	–	–	–	–	–	–	1.392	0.02358	29.3997	0.1089	0.1089	0.03401	0	–
c1cc2ccc3ccc4ccc5cccc6c(c1)c2c3c4c56 [Benzo[g,h,i]perylene]	–	–	–	–	–	–	–	–	–	–	–	–	–	1.63	0.01297	53.4605	0.06193	0.06193	0.01871	0	–
c1ccc2cc3c(cc2c1)-c1cccc2cccc-3c12 [Benzo[k]fluoranthene]	386	124.5	0.2609	261.5	3.833	0.7223	0.005418	1.391	0.7169	2.006	0.4984	15.74	4.199	–	–	–	–	–	–	–	LogKow (PubChem) [1]: 6.11; K [2, 13]: 0.1008; Span [2, 13]: 11.54; Tau [2, 13]: 9.919; K Value [3, 14]: 29.8778; Plateau Value [3, 15]: 0.1081; Y0 [3, 16]: 0; Half-time Value [3, 17]: 0.0232; Span Value [3, 17]: 0.1081; Tau Value [3, 17]: 0.03347
c1ccc(-c2ccccc2)cc1 [Biphenyl]	–	–	–	–	–	–	–	–	–	–	–	–	–	0.591	0.02096	33.0653	0.6997	0.6997	0.03024	0	K [2]: 1.298 and 1.173 and 1.091; Tau [2]: 0.7703 and 0.8527 and 0.917
c1ccc2c(c1)ccc1c3ccccc3ccc21 [Chrysene]	–	–	–	–	–	–	–	–	–	–	–	–	–	77098	4.881	0.142	0.1581	0.1581	7.042	0	Smith et al. 2010 K Value [4]: 1.37
c1ccc2c(c1)ccc1cc3c(ccc4ccccc43)cc12 [Dibenzo[a,h]anthracene]	–	–	–	–	–	–	–	–	–	–	–	–	–	1.539	3.094e-6	–	0.033	0.033	4.463e-6	0	Smith et al. 2010 K Value [4]: 1.1
c1ccc2c(c1)-c1ccc3ccc4cccc5cc-2c1c3c45 [Indeno[1,2,3-cd]pyrene]	–	–	–	–	–	–	–	–	–	–	–	–	–	2.714	0.01649	42.0316	0.0758	0.0758	0.02379	0	–
c1ccc2ccccc2c1 [Naphthalene]	399.7	38.47	1.287	361.2	0.7773	1.084	-0.1564	0.378	1.24	0.5454	1.834	14.8	3.339	–	–	–	–	–	–	–	Smith et al. 2010 K Value [4]: 2.38; K [2, 13]: 0.6384; Span [2, 13]: 11.46; Tau [2, 13]: 1.566; K Value [3, 14]: 33.9576; Plateau Value [3, 15]: 0.7013; Y0 [3, 16]: 0; Half-time Value [3, 17]: 0.02041; Span Value [3, 17]: 0.7013; Tau Value [3, 17]: 0.02945; K [5]: 3.55
c1cc2cccc3c4cccc5cccc(c(c1)c23)c54 [Perylene]	–	–	–	–	–	–	–	–	–	–	–	–	–	1.656	0.02047	33.856	0.1047	0.1047	0.02954	0	–
